Data reported in patent US20110269828A1, “COMPOSITIONS AND METHODS FOR TREATING AND PREVENTING WEIGHT-RELATED DISORDERS IN COMPANION ANIMALS” (Hill's Pet Nutrition, Inc., priority 2008, published 2011).

Legend:
GSH:GSSG ratio = experiment: Change in GSH:GSSG ratio in blood cells of dogs consuming DL-alpha lipoic acid in an extruded food; assay type: in vivo, dog
Description: (§1) 30 adult, random source, dogs were utilized for this study. Dogs were at least 10 months of age, not pregnant, not lactating and of reasonable body weight prior to start of test. Animals were randomized into 5 groups for dietary treatment with 3 males and 3 females per each group.
All dogs were fed a control food (0 ppm dl-alpha-lipoic acid added) that met or exceeded all recommendations for nutrients as proposed by the American Association of Feed Control Officials (AAFCO 2000) during a 2 week prefeeding period (Table 2). Following the prefeeding period dogs were randomized into 5 treatment groups with one of the following dl-alpha lipoic acid target-inclusions (dry matter basis): 0 ppm, 150 ppm, 1500 ppm, 3000 ppm, 4500 ppm. In all diets, control and alpha lipoic acid, Vitamin E was added and was present at a level of 600-1000 International Units and Vitamin C was added at levels of 100-200 ppm.
Blood was collected aseptically for complete blood count, and blood biochemistry analysis 2 weeks prior to start and again at […], 56, 84, 112, 140 and 168 days of the study. In addition, 15 ml of whole blood was collected for isolation of lymphocytes at day 0, 28 and 84 of the dietary intervention.
Heparinized whole blood was layered onto a 50 ml Accuspin conical centrifuge tube (Sigma Chemical) and an equal volume of Phosphate buffered saline (PBS) was added. Samples were centrifuged at 700 g for 30 minutes without brake. The monocyte layer was harvested, transferred to a 15 ml conical centrifuge tube, resuspended in 1-3 ml of PB, and centrifuged as before (First wash). A second wash was performed as the first wash. Finally, cells were harvested and suspended in perchloric acid (10% w/v) and frozen at −70° C., until analysis.
Samples were transferred from −70° C. freezer into a cooler with dry ice in it. Vials were centrifuged at 12,000 rpm for 5 minutes in a refrigerated centrifuge. An aliquot of supernatant for glutathione (GSH) analysis was transferred to a conical test tube.
Derivatization of the acid soluble extracts was by the method of Reed and coworkers (Fariss et al) as modified by Jones (Jones et al)
Briefly, 150 μL extract or external standards were added into a 1.5 ml Eppendorf tube followed by addition of 20μγ-Glu-Glu internal standard and 50 μL IAA added followed by mixing. The solution was adjusted to pH about 10 (purple color) by using KOH—KHCO3 working solution. Solutions were incubated 1 hr, under room temperature in the dark. Sanger's reagent was added at the same volume as of the total volume and the solution was incubated overnight (20 hrs) in the dark at room temperature.
After incubation, the solution was centrifuged at 12000 rpm for 5 minutes with the supernatant transferred into another 1.5 ml eppendorf tube.
Solvents and separation conditions were as described (Fariss, Jones). Levels of GSH and GSSG were quantified relative to authentic standards. Gamma-glutamyl-glutamate was used as an internal standard to assess derivatization efficiency.
Comparison of values for clinical chemistry, hematology and body weights vs baseline were analyzed by way of paired t-test on SAS for windows with significance set at P<0.05. Means of values at each measured time point were separated by a one-way ANOVA with significance set at P<0.05. The difference in GSH:GSSG between day 84 and baseline were analyzed between groups by way of SAS for windows in a one-way ANOVA with significance set at P<0.05.

dogs [1] = experiment: 6 month feeding study of dl-alpha-lipoic acid in dogs: body weight, physical examination, safety; assay type: in vivo
Description: as §1
All dogs were fed a control food (0 ppm dl-alpha-lipoic acid added) that met or exceeded all recommendations for nutrients as proposed by the American Association of Feed Control Officials (AAFCO 2000) during a 2 week prefeeding period (Table 2). […]
Test foods were the sole source of nutrients except for water. […] After dogs were selected and initial body weights taken, a food dose was calculated for each dog based on the expected ME of the food. Initial food dose calculations were based on the maintenance energy requirement (MER) for the dog modified by a factor to account for normal activity as calculated by the following formula: […]
Dogs were weighed weekly and had food doses adjusted as needed in order to feed enough food to maintain their optimal body weight. Optimal body weight was determined to be 3 on a 5 point scale. […] All measures of body weight and food intake were recorded. […]
Comparison of values for clinical chemistry, hematology and body weights vs baseline were analyzed by way of paired t-test on SAS for windows with significance set at P<0.05. […]

dogs [2] = experiment: Body composition (DEXA) of dogs over 90 days; assay type: in vivo, dog
Description: 30 dogs were used to determine the effect of lipoic acid when compared to an AAFCO control food or a test food containing fish oil.
Table 9 illustrates Dual Energy X-Ray Absorptiometry (DEXA) measurement for dogs after being fed a control diet compared with dogs fed a pet food including lipoic acid for 90 days. The measurement of body fat using DEXA is more accurate than body weight for assessing health. A dog can have a lot of muscle, but be considered “over-weight” by many height/weight charts. The opposite can also be true—a dog can have a lot of fat and little muscle and be “over-fat” but not overweight.

plasma metabolites = experiment: Metabolomics: fold change in metabolites measured in the blood at day 30; assay type: in vivo, dog
Description: Metabolomics: Plasma metabolites were analyzed and were compared as fold change relative to the control fed dogs.

[3] = tested on: genes related to cartilage and energy metabolism; experiment: Differential gene expression profile in whole blood (canine 2 Affymetrix genechips); assay type: in vivo, dog
Description: A differential gene expression profile was studied between an AAFCO control food, a food containing fish oil, and a food containing lipoic acid. At a minimum of 1.3 fold change, a list of 1212 genes was generated compared to the AAFCO control and 1896 genes compared to the food containing fish oil at d 30.
RNA extraction: Total RNAs were isolated from whole blood samples using the PAXgene RNA isolation kit. All measurements were done with the canine 2 Affymetrix genechips. For statistical analysis, all measurements were normalized with RMA. All analysis was preformed using Partek. An ANOVA t-test was performed for genes that are differentially expressed between the control and test foods were selected based on p-value cutoff 0.1, fold change >+/−1.3.

dogs [4] = experiment: Percentage of animals classifying genomically fat; assay type: in vivo, dog
Description: Table 6 illustrates the percentage of dogs classified as genomically fat after being fed a control diet compared with dogs fed a control plus fish oil and a control plus lipoic acid for 30 days.

[5] = tested on: type II collagen C-propeptide and carboxy-terminal crosslinked telopeptide fragment of type II collagen; experiment: Serum cartilage markers by ELISA; assay type: in vivo, dog; conditions: vs a similar food without lipoic acid, day 0 as covariate
Description: Biomarker measurements: Serum cartilage markers were measured using ELISA based kits to determine concentrations of cartilage markers. Day 0 was used as a covariate in the analysis to adjust for baseline values.

[6] = body composition over 90 days, dogs
[7] = dogs fed a food containing lipoic acid
[8] = day 30, day 0 values as covariate
[9] = lipoic acid vs. control, cartilage metabolism
[10] = lipoic acid vs. control, energy metabolism
[11] = lipoic acid vs. fish oil, cartilage metabolism
[12] = lipoic acid vs. fish oil, energy metabolism

## O=C(O)CCCCC1CCSS1 (racemic) [Lipoic Acid, dl-alpha-lipoic acid]
GSH:GSSG ratio; 150 ppm inclusion in extruded food, mean +/- spread
  Difference in GSH:GSSG ratio- day 0 to day 84 compared to baseline food: 70 +/− 20
GSH:GSSG ratio; 1,500 ppm inclusion in extruded food
  Difference in GSH:GSSG ratio- day 0 to day 84 compared to baseline food: 24 +/− 7
GSH:GSSG ratio; 3,000 ppm inclusion in extruded food
  Difference in GSH:GSSG ratio- day 0 to day 84 compared to baseline food: 10 +/− 4
GSH:GSSG ratio; 4,500 ppm inclusion in extruded food
  Difference in GSH:GSSG ratio- day 0 to day 84 compared to baseline food: 50 +/− 36
GSH:GSSG ratio; chronic feeding in diet
  Effect on GSH to GSSG ratio: improves the reduced glutathione (GSH) to oxidized glutathione (GSSG) ratio
Dogs [1]; 4500 ppm inclusion group, change appeared to reverse by 6 months
  Body weight: some weight loss occurred initially
Dogs [1]; dog, in vivo
  Chronic feeding in diet: safety: safe and effective
Dogs [2]; 90 day treatment period, vs control and control plus fish oil
  Change in weight: greatest change in weight
Dogs [2]; [6]
  Total Weight: 13,800 g
  Total fat: 2788.3 g
Dogs [2]; [7]
  Body fat: lost fat
Dogs [2]; over 90 days, dogs
  Change in fat: -587.2 g
  Change in weight: -637.5 g
Plasma metabolites; 30 day treatment period, vs control and control plus fish oil
  Change in pyruvate blood levels: greatest change in pyruvate blood levels
Plasma metabolites; after 30 days, control plus lipoic acid
  Kidney markers in blood: decreased kidney markers
Plasma metabolites; [8]
  Fold change in pyruvate measured in the blood, Lipoic acid vs Control: 0.5379
  Fold change in pyruvate measured in the blood, Lipoic acid vs Fish oil: 0.6274
Plasma metabolites; [7]
  Plasma hydroxyproline: reduced in plasma
[3]; [9]
  Fold change 12-lipooxygenase: −1.3
  Fold change Chondroitan sulfate synthase 1: 1.4
  Fold change Facilitated glucose transporter 9: 1.4
  Fold change Prolyl hydroxylase alpha 1: 1.4
  Fold change Prolyl hydroxylase alpha 2: 1.3
  Fold change TIMP1: 1.3
  Fold change chondroitan sulfate proteoglycan 2 (veriscan): 1.5
  Fold change heparan sulfate N-deacetylase/N-sulfotransferase 2: 1.3
[3]; [10]
  Fold change 5′ AMP alpha 1: 1.3
  Fold change 5′ AMP beta 1: 1.3
  Fold change 5′ AMP gamma 2: 1.4
  Fold change Facilitated glucose transporter 1: 1.3
  Fold change Facilitated glucose transporter 6: 1 .3
  Fold change Fatty acid desaturase 1: 1.9
  Fold change Hexokinase 3: 1.3
  Fold change PDK4: 1.4
  Fold change PPAR gamma: 1.3
  Fold change Succinyl CoA ligase alpha: 1.3
[3]; [11]
  Fold change 12-lipooxygenase: −1.3
  Fold change ADAMTS-2: −1.3
  Fold change ADAMTS-10: −1.3
  Fold change ADAMTS-16: −1.3
  Fold change Chondroitan sulfate synthase 1: 1.3
  Fold change Facilitated glucose transporter 9: 1.4
  Fold change Fibronectin 1: 1.4
  Fold change Lysyl hydroxylase: 1.3
  Fold change MMP2: −1.3
  Fold change MMP7: −1.3
  Fold change N-acetylgalactosaminyltransferase 1: 1.3
  Fold change Transforming growth factor beta receptor 1: 1.3
  Fold change chondroitan sulfate proteoglycan 2 (veriscan): 1.5
[3]; [12]
  Fold change 5′ AMP alpha 1: 1.3
  Fold change 5′ AMP beta 1: 1.3
  Fold change 5′ AMP gamma 2: 1.5
  Fold change Facilitated glucose transporter 1: 1.3
  Fold change Facilitated glucose transporter 6: 1.4
  Fold change Hexokinase 3: 1.3
  Fold change PDK4: 1.6
  Fold change PPAR gamma: 1.3
  Fold change SREBP-1: −1.3
  Fold change Succinyl CoA ligase alpha: 1.3
  Fold change Succinyl CoA ligase beta: 1.3
  Fold change cAMP responsice element modulator: 1.3
Dogs [4]; after a 30 day treatment period, control plus lipoic acid
  Genomic resemblance to physically fat dogs: genomically did not resemble physically fat dogs
Dogs [4]; d 30, dogs
  Percentage of animals at d 30 that classified fat using genomic markers: 0%
[5]
  Change in carboxy-terminal crosslinked telopeptide fragment of type II collagen: greater decrease
  Change in type II collagen C-propeptide: greater decrease
